# Source: patent US5532233A, “Hetrazepine compounds which have useful pharmaceutical utility” (priority 1986, dated 1996)
# Read-outs that look alike come from different tables or passages of the source.
# What was measured:
# [1] = test system: PAF-induced aggregation of human thrombocytes; test: PAF-induced aggregation of human thrombocytes in vitro (inhibition of blood platelet aggregation); type: cell-based; settings: read-out: IC50 value PAF
# Method: The PAF-antagonistic activity of some compounds of formulae Ia and Ib was tested in vitro on the inhibition of blood platelet aggregation.
# 1. Tests in vitro: inhibition of blood platelet aggregation
# The PAF-induced aggregation of human thrombocytes in vitro was used to determine the PAF antagonistic activity of substances. In order to obtain thrombocyte-rich plasma (TRP) blood is taken from an uncongested vein using a plastic syringe which contains 3.8% sodium citrate solution. The ratio of sodium citrate solution to blood is 1:9. After careful mixing the citrated blood is centrifuged for 20 minutes at 150×g (1200 rpm). The thrombocyte aggregation is measured using the method developed by Born and Cross (G. V. R. Born and M. J. Cross, J. Physiol. 168, 178 (1963)), with PAF being added to the TRP with constant stirring to initiate aggregation.
# The test substance is added in a volume of 10 μl 2-3 minutes before aggregation is initiated. The solvent used is either distilled water, ethanol and/or dimethyl sulphoxide. Control mixtures are given corresponding volumes of these solvents. After the initial absorption has been recorded (2-3 minutes) aggregation is induced with PAF (5×10^-8 M).
# The peak of the first aggregation wave is used in order to assess the effects of the substance. The PAF-induced maximum absorption rate (=maximum aggregation×100%) is tested at the same time in a parallel mixture (=control mixture in one of the channels of the 2-channel aggregometer) to each test mixture (second channel) and used as a 100% value. The aggregation value achieved under the influence of the test substance is […].
# Each test substance is tested at concentrations of from 10^-3 to 10^-8 M with a random sampling scope of n=4 to determine any inhibitory activity on the PAF-induced thrombocyte aggregation. A concentration-activity curve is then drawn up from 3 concentrations and the IC50 is determined (concentration for a 50% inhibition of aggregation). With some compounds, only approximate tests for guidance are carried out.
# benzodiazepine receptor = benzodiazepine receptor bonding test using [^3 H] flunitrazepam as radioligand (FNB); type: binding
# PAF = settings: PAF-antagonistic activity; Kornecki et al.; read-out: IC50 (concentration for a 50% inhibition of aggregation); cited from earlier work
# [2] = test system: PAF-induced aggregation of human thrombocytes; settings: PAF-antagonistic activity known from European Patent Application No. 176 927; read-out: IC50 (the concentration at which a 50% inhibition of aggregation is measured); cited from earlier work
# [3] = [^3 H] flunitrazepam, racemate tested unless otherwise noted, read-out: IC50 value FNB (flunitrazepam bonding test)
# [4] = [^3 H] flunitrazepam as radioligand, read-out: value in the benzodiazepine receptor bonding test
# [5] = inhibition of PAF-induced (5×10^-8 M) human thrombocyte aggregation, racemate tested unless otherwise noted
Structure (SMILES),IC50 ([1]; Homo sapiens) [nM],IC50 (benzodiazepine receptor; [3]) [nM],other results
"Cc1nnc2n1-c1ccc(Cl)cc1C(c1ccccc1)=NC2 [Alprazolam, reference compound]",14000,5.5,IC50 (PAF): 14000 nM
"Cc1nnc2n1-c1sc3c(c1C(c1ccccc1Cl)=NC2)CCCC3 [Compound (A), 6-(2-chlorophenyl)-11-methyl-2,3,4,5-tetrahydro-8H-[1]benzothieno[3,2-f][1,2,4]triazolo[4,3-a][1,4]diazepine, reference compound]",< 2500,21,IC50 (benzodiazepine receptor; [4]): 21 nM; IC50 [2]: 2500 nM
"Cc1nnc2n1-c1sc3c(c1C(c1ccccc1Cl)=NC2)CCNC3 [Compound (B), 6-(2-chlorophenyl)-11-methyl-2,3,4,5-tetrahydro-8-H-pyrido[4',3':4,5]thieno-[3,2-f][1,2,4]triazolo[4,3-a][1,4]diazepine, reference compound]",< 7000,35,IC50 (benzodiazepine receptor; [4]): 35 nM; IC50 [2]: 10000 nM
"Cc1nnc2n1-c1sc3c(c1C(c1ccccc1Cl)=NC2)CC(C(=O)N1CCOCC1)CC3 (stereo not shown) [Example 1, 4-(Morpholin-4-yl-carbonyl)-6-(2-chlorophenyl)-11-methyl-2,3,4,5-tetrahydro-8H-[1]benzothieno[3,2-f][1,2,4]triazolo[4,3-a][1,4]diazepine]",500,> 5000,–
"Cc1nnc2n1-c1sc3c(c1C(c1ccccc1Cl)=NC2)CCC(C(=O)N1CCOCC1)C3 (stereo not shown) [Example 2, 3-(Morpholin-4-yl-carbonyl)-6-(2-chlorophenyl)-11-methyl-2,3,4,5-tetrahydro-8H-[1]benzothieno[3,2-f][1,2,4]triazolo[4,3-a][1,4]diazepine]",2500,> 5000,–
"Cc1nnc2n1-c1sc3c(c1C(c1ccccc1Cl)=NC2)CC(C(=O)N1CCOCC1)C3 (stereo not shown) [Example 7, 3-(Morpholin-4-yl-carbonyl)-5-(2-chlorophenyl)-10-methyl-3,4-dihydro-2H,7H-cyclopenta[4,5]thieno[3,2-f][1,2,4]triazolo[4,3-a][1,4]diazepine]",300,3600,–
"Cc1cnc2n1-c1sc3c(c1C(c1ccccc1Cl)=NC2)CC(C(=O)N1CCOCC1)CC3 (stereo not shown) [Example 10, 4-(Morpholin-4-yl-carbonyl)-6-(2-chlorophenyl)-11-methyl-2,3,4,5-tetrahydro-8H-[1]benzothieno[3,2-f]imidazo[1,2-a][1,4]diazepine]",–,–,"IC50 [1, 5]: 300 nM"
CCN(CC)C(=O)C1CCc2sc3c(c2C1)C(c1ccccc1Cl)=NCc1ncc(C)n1-3 (stereo not shown) [Example 11],500,5000,–
"Cc1nnc2n1-c1sc3c(c1C(c1ccccc1Cl)=NC2)CC(CO)CC3 (stereo not shown) [Example 17, 4-(Hydroxymethyl)-6-(2-chlorophenyl)-11-methyl-2,3,4,5-tetrahydro-8H-[1]benzothieno[3,2-f][1,2]triazolo[4,3-a][1,4]diazepine]",1800,1070,–
"OCC1Cc2sc3c(c2C1)C(c1ccccc1Cl)=NCc1nncn1-3 (stereo not shown) [Example 18, 3-(Hydroxymethyl)-5-(2-chlorophenyl)-3,4-dihydro-2H,7H-cyclopenta[4,5]thieno[3,2-f][1,2,4]triazolo[4,3-a][1,4]diazepine]",–,–,"IC50 [1, 5]: 1300 nM"
"CC(=O)OCC1Cc2sc3c(c2C1)C(c1ccccc1Cl)=NCc1nnc(C)n1-3 (stereo not shown) [Example 19, 3-Acetoxymethyl-5-(2-chlorophenyl)-10-methyl-3,4-dihydro-2H,7H-cyclopenta[4,5]thieno[3,2-f][1,2,4]triazolo[4,3-a][1,4]diazepine]",–,–,"IC50 [1, 5]: 600 nM"
"Cc1nnc2n1-c1sc3c(c1C(c1ccccc1Cl)=NC2)CC(CN1CCOCC1)CC3 (stereo not shown) [Example 21, 4-(N-Morpholinomethyl)-6-(2-chlorophenyl)-11-methyl-2,3,4,5-tetrahydro-8H-[1]benzothieno[3,2-f][1,2,4]triazolo[4,3-a][1,4]-diazepine]",300,> 5000,–
"CC(=S)N1CCc2c(sc3c2C(c2ccccc2Cl)=NCc2nnc(C)n2-3)C1 [Example 25, 3-Thioacetyl-6-(2-chlorophenyl)-11-methyl-2,3,4,5-tetrahydro-8H-pyrido[4',3':4,5]thieno[3,2-f][1,2,4]triazolo[4,3-a][1,4]diazepine]",1000,2300,–
"Cc1nnc2n1-c1sc3c(c1C(c1ccccc1Cl)=NC2)CC(C1=NCCN1)CC3 (stereo not shown) [Example 33, 4-[2-Imidazolin-2-yl]-6-(2-chlorophenyl)-2,3,4,5-tetrahydro-8H-[1]benzothieno[3,2-f][1,2,4]triazolo[4,3-a][1,4]diazepine]",–,–,"IC50 [1, 5]: 2300 nM"
CCN(CC)C(=O)C1CCc2c(sc3c2C(c2ccccc2Cl)=NCc2nnc(C)n2-3)C1 (stereo not shown) [Example 35],3300,> 5000,–
CCN(CC)C(=O)C1CCc2sc3c(c2C1)C(c1ccccc1Cl)=NCc1nnc(C)n1-3 (stereo not shown) [Example 36],400,> 5000,–
Cc1nnc2n1-c1sc3c(c1C(c1ccccc1Cl)=NC2)CC(C(=O)N1CCN(C)CC1)CC3 (stereo not shown) [Example 37],1800,> 5000,–
Cc1nnc2n1-c1sc3c(c1C(c1ccccc1Cl)=NC2)CC(C(=O)N(C)CCO)CC3 (stereo not shown) [Example 38],–,–,"IC50 [1, 5]: 2700 nM"
Cc1nnc2n1-c1sc3c(c1C(c1ccccc1Cl)=NC2)C(C(=O)N(C)C)CC3 (stereo not shown) [Example 46],4800,1460,–
Cc1nnc2n1-c1sc3c(c1C(c1ccccc1Cl)=NC2)CC(C(=O)NCC(=O)N1CCOCC1)C3 (stereo not shown) [Example 58],400,380,–
CC(=O)OCC1CCc2sc3c(c2C1)C(c1ccccc1Cl)=NCc1nnc(C)n1-3 (stereo not shown) [Example 62],400,4600,–
Cc1cnc2n1-c1sc3c(c1C(c1ccccc1Cl)=NC2)CC(Cn1cncn1)CC3 (stereo not shown) [Example 63],400,> 5000,–
Cc1cnc2n1-c1sc3c(c1C(c1ccccc1Cl)=NC2)CC(CO)CC3 (stereo not shown) [Example 64],–,–,"IC50 [1, 5]: 800 nM"
Cc1nnc2n1-c1sc3c(c1C(c1ccccc1Cl)=NC2)CC(CN1CCOCC1)C3 (stereo not shown) [Example 66],< 200,920,–
CC(=O)OCC1Cc2sc3c(c2C1)C(c1ccccc1Cl)=NCc1nncn1-3 (stereo not shown) [Example 68],–,–,"IC50 [1, 5]: 400 nM"
Cc1nnc2n1-c1sc3c(c1C(c1ccccc1Cl)=NC2)CC(C1=NCCO1)CC3 (stereo not shown) [Example 79],2200,4800,–
Cc1nnc2n1-c1sc3c(c1C(c1ccccc1Cl)=NC2)CC(C1=NC(C)(C)CN1)CC3 (stereo not shown) [Example 83],–,–,"IC50 [1, 5]: 900 nM"
"CC(=O)NCC(=O)N1CCc2c(sc3c2C(c2ccccc2Cl)=NCc2nnc(C)n2-3)C1 [Example 86, 3-Acetylaminomethylcarbonyl-6-(2-chlorophenyl)-11-methyl-2,3,4,5-tetrahydro-8H-pyrido[4',3':4,5]thieno[3,2-f][1,2,4]triazolo[4,3-a][1,4]diazepine]",1000,> 5000,–
Cc1cnc2n1-c1sc3c(c1C(c1ccccc1Cl)=NC2)CC(CN1CCOCC1)C3 (stereo not shown) [Example 113],< 200,3000,–
"Cc1nnc2n1-c1ccc(Cl)cc1C(c1ccccc1Cl)=NC2 [Triazolam, reference compound]",9000,1.4,IC50 (PAF): 9000 nM
